In brackets after ≈: the same amount, converted by molar mass.
Experiments:
[1] = Inhibitory activity towards microtubule disassembly relative to paclitaxel evaluated as ID50 compound/ID50 paclitaxel; type: functional
P388 = experiment: Cytotoxicity against P388 leukemia cells was calculated; type: functional, cell-based; conditions: Mus musculus

SMILES	ID50 ratio [1]	IC50 (P388)
CC(=O)O[C@@]12CO[C@@H]1C[C@H](O)[C@@]1(C)C(=O)[C@H](O)C3=C(C)[C@@H](OC(=O)[C@H](O)[C@@H](NC(=O)OC(C)(C)C)c4ccccc4)C[C@@](O)([C@@H](OC(=O)c4ccccc4)[C@H]21)C3(C)C	0.6	–
CC(=O)O[C@@]12CO[C@@H]1C[C@H](O)[C@@]1(CO)C(=O)[C@H](O)C3=C(C)[C@@H](OC(=O)[C@H](O)[C@@H](NC(=O)OC(C)(C)C)c4ccccc4)C[C@@](O)([C@@H](OC(=O)c4ccccc4)[C@H]21)C3(C)C	0.4	0.07 µg/mL (≈ 0.085 µM)
